Consider one molecule from US4618687A, “Cyclopentenone compound and process for production thereof” (Kyowa Hakko Kogyo Co., Ltd., priority 1984, dated 1986).

In brackets after ≈: the same amount, converted by molar mass.

In this experiment the test system is HeLa S3 cells. Put plainly: Growth inhibitory effect on HeLa cells. The format is cell-based. Particulars: 96 h; for Cell count, average ± standard deviation: three runs, control 732 ± 24. The method, then:
Growth inhibitory effect on HeLa cells
Cultured HeLa S3 cells are suspended in an MEM medium (containing 10% bovine fetus serum and 6 mg/100 ml kanamycin) at a concentration of 5×10^4 cells/ml, 1 ml each of the cell suspension is pipetted in 24-hole multi-dishes, and the cells are cultured in a carbon dioxide cultivator with 5% CO2 at 37° C. for 24 hours. Then, 0.1 ml each of drug solutions prepared at predetermined concentrations are added to each dish. Then, the cells are further cultured in the carbon dioxide cultivator for 96 hours. After the culturing, the culture liquor is removed from the dishes, and then 1 ml of PBS [physiological saline solution containing a phosphate buffer (pH 7.2)]is added to the dishes to gently wash the cell surfaces. Then, PBS is removed from the dishes. Then, 1 ml of PBS containing 0.05% trypsin and 0.02% EDTA is added to each dish. The dishes are left standing at room temperature for about 15 minutes. Adhered cells are peeled off, and 0.5 ml of the cell suspension is added to 10 ml of an isotonic solution. Cells are counted by a microcell counter to determine inhibition percent (%) against cell propagation of groups treated with the drug on the basis of the cell count of the control group. Linear expression showing a relationship between the concentration and the inhibition percent are obtained from the inhibition percent of the drug against the cell propagation at the respective concentration according to the least-squares method, and then the drug concentrations IC50 showing a 50% inhibition against the cell propagation are obtained from the linear expression.

As usually defined, the inhibition is the relative decrease from the control value, in per cent. The IC50 is the point on the concentration scale where inhibition reaches its midpoint. With `O=C1C=CC2COC(O)CC12` (stereo not drawn) [compound (I), 4-hydroxy-3-oxabicyclo [4.3.0]nona-8-en-7-on], the “Cell count, average ± standard deviation” value (1 μg/ml) is given as 697 ± 58 × 10^3 cells/ml; the “Cell count, average ± standard deviation” value (3 μg/ml) is listed as 784 ± 42 × 10^3 cells/ml; the “Cell count, average ± standard deviation” value (5 μg/ml) is 454 ± 21 × 10^3 cells/ml; the “Cell count, average ± standard deviation” value (10 μg/ml) is 7.1 ± 2.1 × 10^3 cells/ml. For the same molecule, the inhibition at 1 µg/mL (Homo sapiens, HeLa S3, 1 μg/ml, read-out: Inhibition percent against cell propagation) was found to be 4.8%. Further, the inhibition at 3 µg/mL (Homo sapiens, HeLa S3, 3 μg/ml, read-out: Inhibition percent against cell propagation) is -7%. Where the note is “Homo sapiens, HeLa S3, 5 μg/ml, read-out: Inhibition percent against cell propagation”, the inhibition at 5 µg/mL was found to be 38%. Moreover, the inhibition at 10 µg/mL (Homo sapiens, HeLa S3, 10 μg/ml, read-out: Inhibition percent against cell propagation) was 99%. It took 5.73 µg/mL (≈ 37.2 µM) to reach half-maximal inhibition (Homo sapiens, HeLa S3, 50% inhibition against cell propagation, linear least-squares) (IC50).
